Results on 33 compounds are retold here after patent US10392391B2 (Vertex Pharmaceuticals Incorporated, priority 2012, dated 2019).

Bounds are passed on as bounds.

Chain of ATR kinase (full-length ATR) (Q13535 whole entry): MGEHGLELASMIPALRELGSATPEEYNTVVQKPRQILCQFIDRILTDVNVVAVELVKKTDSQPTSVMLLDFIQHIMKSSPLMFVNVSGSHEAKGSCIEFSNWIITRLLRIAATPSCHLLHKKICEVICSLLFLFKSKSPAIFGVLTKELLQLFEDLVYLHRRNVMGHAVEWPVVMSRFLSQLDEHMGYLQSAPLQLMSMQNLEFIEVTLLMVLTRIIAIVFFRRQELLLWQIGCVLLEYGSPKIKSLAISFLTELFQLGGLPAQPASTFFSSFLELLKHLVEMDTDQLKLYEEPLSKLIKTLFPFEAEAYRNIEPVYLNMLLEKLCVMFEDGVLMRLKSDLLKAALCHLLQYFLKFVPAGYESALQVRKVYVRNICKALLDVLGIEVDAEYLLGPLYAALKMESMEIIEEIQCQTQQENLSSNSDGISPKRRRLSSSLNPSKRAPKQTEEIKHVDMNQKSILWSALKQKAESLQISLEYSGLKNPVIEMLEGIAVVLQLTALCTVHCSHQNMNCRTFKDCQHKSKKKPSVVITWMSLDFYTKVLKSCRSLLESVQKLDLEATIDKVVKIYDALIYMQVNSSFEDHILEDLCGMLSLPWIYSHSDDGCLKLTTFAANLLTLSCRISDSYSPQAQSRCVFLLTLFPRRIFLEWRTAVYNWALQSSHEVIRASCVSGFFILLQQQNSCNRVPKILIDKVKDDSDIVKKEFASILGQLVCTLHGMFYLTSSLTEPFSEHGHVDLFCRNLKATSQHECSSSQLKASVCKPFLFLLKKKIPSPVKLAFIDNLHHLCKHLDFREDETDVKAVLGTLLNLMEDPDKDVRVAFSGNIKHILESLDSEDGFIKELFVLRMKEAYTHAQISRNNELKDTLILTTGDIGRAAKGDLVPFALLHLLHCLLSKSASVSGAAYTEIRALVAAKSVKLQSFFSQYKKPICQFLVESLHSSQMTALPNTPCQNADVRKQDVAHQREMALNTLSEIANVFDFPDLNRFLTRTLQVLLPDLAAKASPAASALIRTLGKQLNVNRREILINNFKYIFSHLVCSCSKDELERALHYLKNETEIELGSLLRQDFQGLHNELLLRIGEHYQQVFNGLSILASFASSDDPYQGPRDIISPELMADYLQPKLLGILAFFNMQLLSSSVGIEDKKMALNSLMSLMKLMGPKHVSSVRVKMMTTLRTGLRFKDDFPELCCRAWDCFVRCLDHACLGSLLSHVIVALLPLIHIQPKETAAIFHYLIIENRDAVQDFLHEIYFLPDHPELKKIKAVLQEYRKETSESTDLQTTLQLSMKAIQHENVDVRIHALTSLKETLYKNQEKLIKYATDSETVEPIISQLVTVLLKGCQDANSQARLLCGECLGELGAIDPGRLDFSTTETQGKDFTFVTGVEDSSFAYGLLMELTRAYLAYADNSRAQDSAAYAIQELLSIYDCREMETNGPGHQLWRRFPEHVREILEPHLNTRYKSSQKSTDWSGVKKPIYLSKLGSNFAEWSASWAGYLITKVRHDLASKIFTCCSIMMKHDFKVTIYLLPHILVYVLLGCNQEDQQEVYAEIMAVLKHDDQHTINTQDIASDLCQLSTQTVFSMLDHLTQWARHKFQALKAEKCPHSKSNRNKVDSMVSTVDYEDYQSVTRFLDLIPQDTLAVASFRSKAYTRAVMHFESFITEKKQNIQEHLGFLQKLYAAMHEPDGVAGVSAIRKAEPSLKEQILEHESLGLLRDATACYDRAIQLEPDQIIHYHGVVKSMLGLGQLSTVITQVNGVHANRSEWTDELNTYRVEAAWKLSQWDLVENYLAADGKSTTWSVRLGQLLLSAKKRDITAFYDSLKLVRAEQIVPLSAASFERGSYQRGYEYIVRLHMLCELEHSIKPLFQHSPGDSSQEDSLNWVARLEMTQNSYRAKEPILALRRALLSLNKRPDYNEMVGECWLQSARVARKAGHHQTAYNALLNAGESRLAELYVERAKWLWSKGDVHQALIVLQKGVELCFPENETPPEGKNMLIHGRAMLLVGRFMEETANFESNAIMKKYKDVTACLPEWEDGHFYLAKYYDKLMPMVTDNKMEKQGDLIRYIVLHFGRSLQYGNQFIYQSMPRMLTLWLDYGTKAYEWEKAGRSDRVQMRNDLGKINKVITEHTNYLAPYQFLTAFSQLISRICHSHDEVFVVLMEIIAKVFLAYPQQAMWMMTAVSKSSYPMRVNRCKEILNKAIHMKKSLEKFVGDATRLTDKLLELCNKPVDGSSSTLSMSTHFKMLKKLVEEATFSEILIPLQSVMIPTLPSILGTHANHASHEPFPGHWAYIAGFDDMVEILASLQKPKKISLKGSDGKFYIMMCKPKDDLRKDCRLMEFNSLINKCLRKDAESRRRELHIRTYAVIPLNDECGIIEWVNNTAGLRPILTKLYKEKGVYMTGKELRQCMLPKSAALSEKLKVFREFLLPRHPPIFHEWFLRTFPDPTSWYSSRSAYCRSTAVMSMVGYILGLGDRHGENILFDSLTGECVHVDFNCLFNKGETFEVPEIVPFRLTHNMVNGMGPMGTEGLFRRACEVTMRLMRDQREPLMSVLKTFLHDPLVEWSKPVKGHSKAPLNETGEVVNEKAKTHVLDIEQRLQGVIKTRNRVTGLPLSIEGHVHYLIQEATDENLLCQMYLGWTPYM

This test concerns the target ATR kinase (full-length ATR) (Homo sapiens (Human), UniProt Q13535). Put plainly: ATR inhibition assay (radioactive-phosphate incorporation). The format is biochemical. To be noted: Ki(app), 5 nM full-length ATR, 10 μM ATP, 25° C. The method in brief: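 Radiometric 33P incorporation by 5 nM full-length ATR into 800 μM target peptide with 10 μM [γ-33P]ATP, in 50 mM Tris/HCl pH 7.5, 10 mM MgCl2, 1 mM DTT, 7% DMSO, 25° C. Compound pre-incubated 10 minutes; reaction stopped after 24 hours, captured on phosphocellulose. Ki(app) from non-linear regression of initial rates.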
As to `COC(=O)C1CCN(c2ccncc2NC(=O)c2c(N)nn3cc(Cl)cnc23)CC1` [I-N-74, methyl-1-(3-(2-amino-6-chloropyrazolo[1,5-a]pyrimidine-3-carboxamido)pyridin-4-yl)piperidine-4-carboxylate], the Ki lay within 10 to 1000 nM.
Regarding `Nc1nn2cc(F)cnc2c1C(=O)Nc1cncc(C2CC2)c1N1CCN([C@H]2CCOC2)CC1` [I-N-120, (S)-2-amino-N-(5-cyclopropyl-4-(4-(tetrahydrofuran-3-yl)piperazin-1-yl)pyridin-3-yl)-6-fluoropyrazolo[1,5-a]pyrimidine-3-carboxamide], the Ki was 10 to 1000 nM.
Next, `N#CCc1cnc2c(C(=O)Nc3cnccc3OC3CCCCC3)c(N)nn2c1` [I-O-39, 2-amino-6-(cyanomethyl)-N-(4-(cyclohexyloxy)pyridin-3-yl)pyrazolo[1,5-a]pyrimidine-3-carboxamide]: less than 10 nM.
The figure for `COCCN1CCN(c2c(F)cncc2NC(=O)c2c(N)nn3cc(F)cnc23)CC1` [I-N-127, 2-amino-6-fluoro-N-(5-fluoro-4-(4-(2-methoxyethyl)piperazin-1-yl)pyridin-3-yl)pyrazolo[1,5-a]pyrimidine-3-carboxamide] is 10 to 1000 nM; for `Nc1nn2cc(Cl)cnc2c1C(=O)Nc1cnccc1OCCN1CCOCC1` [I-O-60, 2-amino-6-chloro-N-(4-(2-morpholinoethoxy)pyridin-3-yl)pyrazolo[1,5-a]pyrimidine-3-carboxamide] it is 10 to 1000 nM; for `Nc1nn2cc(F)cnc2c1C(=O)Nc1cncc(F)c1N1CCN(C(=O)CN2CCC2)CC1` [I-N-160, 2-amino-N-(4-(4-(2-(azetidin-1-yl)acetyl)piperazin-1-yl)-5-fluoropyridin-3-yl)-6-fluoropyrazolo[1,5-a]pyrimidine-3-carboxamide] it is 10 to 1000 nM.
The figure for `CN1CCN(C(=O)C2CCN(c3c(F)cncc3NC(=O)c3c(N)nn4cc(F)cnc34)CC2)C2CC21` (stereo not drawn) [I-G-65, 2-amino-6-fluoro-N-(5-fluoro-4-(4-(5-methyl-2,5-diazabicyclo[4.1.0]heptane-2-carbonyl)piperidin-1-yl)pyridin-3-yl)pyrazolo[1,5-a]pyrimidine-3-carboxamide] is 10 to 1000 nM; for `Nc1nn2cc(F)cnc2c1C(=O)Nc1cnccc1-c1ccc(S(=O)(=O)N2CCC2)cc1` [I-C-64, 2-amino-N-(4-(4-(azetidin-1-ylsulfonyl)phenyl)pyridin-3-yl)-6-fluoropyrazolo[1,5-a]pyrimidine-3-carboxamide] it is 10 to 1000 nM.
In the case of `CCN1CCN(c2ccncc2NC(=O)c2c(N)nn3cc(Cl)cnc23)CC1` [I-N-51, 2-amino-6-chloro-N-(4-(4-ethylpiperazin-1-yl)pyridin-3-yl)pyrazolo[1,5-a]pyrimidine-3-carboxamide], the Ki is 10 to 1000 nM.
The figure for `CN1CCc2c(cncc2NC(=O)c2c(N)nn3cc(F)cnc23)C1` [I-C-8, 2-amino-6-fluoro-N-(7-methyl-5,6,7,8-tetrahydro-2,7-naphthyridin-4-yl)pyrazolo[1,5-a]pyrimidine-3-carboxamide] is 10 to 1000 nM.
Next, `Nc1nn2cc(F)cnc2c1C(=O)Nc1cncc(F)c1N1CCC(C(=O)NC2COC2)CC1` [I-G-37, 2-amino-6-fluoro-N-(5-fluoro-4-(4-(oxetan-3-ylcarbamoyl)piperidin-1-yl)pyridin-3-yl)pyrazolo[1,5-a]pyrimidine-3-carboxamide]: 10 to 1000 nM.
Take `Nc1nn2cc(Cl)cnc2c1C(=O)Nc1cnccc1OC1CN2CCC1CC2` (stereo not drawn) [I-O-62, 2-amino-6-chloro-N-(4-(quinuclidin-3-yloxy)pyridin-3-yl)pyrazolo[1,5-a]pyrimidine-3-carboxamide]: the Ki fell in the range of 10 to 1000 nM.
Regarding `CN1CCOC2(CCN(c3ccncc3NC(=O)c3c(N)nn4cc(F)cnc34)CC2)C1` [I-N-183, 2-amino-6-fluoro-N-(4-(4-methyl-1-oxa-4,9-diazaspiro[5.5]undecan-9-yl)pyridin-3-yl)pyrazolo[1,5-a]pyrimidine-3-carboxamide], the Ki was in the range of 10 to 1000 nM.
In the case of `CC(C)(C)NC(=O)C1CCN(c2c(F)cncc2NC(=O)c2c(N)nn3cc(F)cnc23)CC1` [I-G-19, 2-amino-N-(4-(4-(tert-butylcarbamoyl)piperidin-1-yl)-5-fluoropyridin-3-yl)-6-fluoropyrazolo[1,5-a]pyrimidine-3-carboxamide], the Ki was in the range of 10 to 1000 nM.
As for `Nc1nn2cc(F)cnc2c1C(=O)Nc1cnccc1N1CCC(c2ncon2)CC1` [I-N-241, N-(4-(4-(1,2,4-oxadiazol-3-yl)piperidin-1-yl)pyridin-3-yl)-2-amino-6-fluoropyrazolo[1,5-a]pyrimidine-3-carboxamide], the Ki fell in the range of 10 to 1000 nM.
The figure for `N#CCc1cnc2c(C(=O)Nc3cnccc3Oc3ccccc3)c(N)nn2c1` [I-O-25, 2-amino-6-(cyanomethyl)-N-(4-phenoxypyridin-3-yl)pyrazolo[1,5-a]pyrimidine-3-carboxamide] is less than 10 nM; for `CN1CCCN(c2ccncc2NC(=O)c2c(N)nn3cc(Cl)cnc23)CC1` [I-N-43, 2-amino-6-chloro-N-(4-(4-methyl-1,4-diazepan-1-yl)pyridin-3-yl)pyrazolo[1,5-a]pyrimidine-3-carboxamide] it is 10 to 1000 nM.
The figure for `C[C@H]1CN(C(=O)C2CCN(c3c(F)cncc3NC(=O)c3c(N)nn4cc(F)cnc34)CC2)CCN1C` [I-G-47, (S)-2-amino-N-(4-(4-(3,4-dimethylpiperazine-1-carbonyl)piperidin-1-yl)-5-fluoropyridin-3-yl)-6-fluoropyrazolo[1,5-a]pyrimidine-3-carboxamide] is 10 to 1000 nM; for `Nc1nn2cc(F)cnc2c1C(=O)Nc1cncc(C2CC2)c1N1CCN(C2COC2)CC1` [I-N-32, 2-amino-N-(5-cyclopropyl-4-(4-(oxetan-3-yl)piperazin-1-yl)pyridin-3-yl)-6-fluoropyrazolo[1,5-a]pyrimidine-3-carboxamide] it is 10 to 1000 nM; for `Nc1nn2cc(F)cnc2c1C(=O)Nc1cnccc1-c1cccnc1F` [I-C-35, 2-amino-6-fluoro-N-(2-fluoro-[3,4′-bipyridin]-3′-yl)pyrazolo[1,5-a]pyrimidine-3-carboxamide] it is 10 to 1000 nM.
Next, `Nc1nn2cc(F)cnc2c1C(=O)Nc1cnccc1O[C@H]1Cc2nccn2C1` [I-O-16, (S)-2-amino-N-(4-((6,7-dihydro-5H-pyrrolo[1,2-a]imidazol-6-yl)oxy)pyridin-3-yl)-6-fluoropyrazolo[1,5-a]pyrimidine-3-carboxamide]: 10 to 1000 nM; `Nc1nn2cc(F)cnc2c1C(=O)Nc1cncc(F)c1N1CC(=O)N2CCCC2C1` (stereo not drawn) [I-N-232, 2-amino-6-fluoro-N-(5-fluoro-4-(4-oxohexahydropyrrolo[1,2-a]pyrazin-2(1H)-yl)pyridin-3-yl)pyrazolo[1,5-a]pyrimidine-3-carboxamide]: 10 to 1000 nM.
As to `Nc1nn2cc(F)cnc2c1C(=O)Nc1cncc(Cl)c1N1CCN(C2CCOC2)CC1` (stereo not drawn) [I-N-124, 2-amino-N-(5-chloro-4-(4-(tetrahydrofuran-3-yl)piperazin-1-yl)pyridin-3-yl)-6-fluoropyrazolo[1,5-a]pyrimidine-3-carboxamide], the Ki is 10 to 1000 nM.
As to `Nc1nn2cc(F)cnc2c1C(=O)Nc1cncc(F)c1N1CCN(S(=O)(=O)C2COC2)CC1` [I-N-201], the Ki fell in the range of 10 to 1000 nM.
Regarding `Nc1nn2cc(F)cnc2c1C(=O)Nc1cnccc1OC1CCC(C(=O)O)CC1` (stereo not drawn) [I-O-8, 4-((3-(2-amino-6-fluoropyrazolo[1,5-a]pyrimidine-3-carboxamido)pyridin-4-yl)oxy)cyclohexanecarboxylic acid], the Ki fell in the range of 10 to 1000 nM.
On to `Nc1nn2cc(Cl)cnc2c1C(=O)Nc1cnccc1-n1ccnc1` [I-N-29, N-(4-(1H-imidazol-1-yl)pyridin-3-yl)-2-amino-6-chloropyrazolo[1,5-a]pyrimidine-3-carboxamide], for which the Ki was 10 to 1000 nM.
On to `Cn1c(-c2ccncc2NC(=O)c2c(N)nn3cc(F)cnc23)cccc1=O` [I-C-58, 2-amino-6-fluoro-N-(1-methyl-6-oxo-1,6-dihydro-[2,4′-bipyridin]-3′-yl)pyrazolo[1,5-a]pyrimidine-3-carboxamide], for which the Ki is 10 to 1000 nM.
Take `Cn1nncc1-c1ccncc1NC(=O)c1c(N)nn2cc(F)cnc12` [I-C-72, 2-amino-6-fluoro-N-(4-(1-methyl-1H-1,2,3-triazol-5-yl)pyridin-3-yl)pyrazolo[1,5-a]pyrimidine-3-carboxamide]: the Ki fell in the range of 10 to 1000 nM.
For `Nc1nn2cc(F)cnc2c1C(=O)Nc1cnccc1N1CCN(S(=O)(=O)C2CCOC2)CC1` (stereo not drawn) [I-N-179, 2-amino-6-fluoro-N-(4-(4-((tetrahydrofuran-3-yl)sulfonyl)piperazin-1-yl)pyridin-3-yl)pyrazolo[1,5-a]pyrimidine-3-carboxamide], the Ki lay in the range of 10 to 1000 nM.
Next, `Nc1nn2cc(F)cnc2c1C(=O)Nc1cncc(F)c1N1CCC(C(=O)N2CC[C@H](N3CCCC3)C2)CC1` [I-G-58, (S)—N-(4-(4-([1,3′-bipyrrolidine]-1′-carbonyl)piperidin-1-yl)-5-fluoropyridin-3-yl)-2-amino-6-fluoropyrazolo[1,5-a]pyrimidine-3-carboxamide]: 10 to 1000 nM; `CN(C)CCOc1ccncc1NC(=O)c1c(N)nn2cc(CC#N)cnc12` [I-O-24, 2-amino-6-(cyanomethyl)-N-(4-(2-(dimethylamino)ethoxy)pyridin-3-yl)pyrazolo[1,5-a]pyrimidine-3-carboxamide]: less than 10 nM; `COCCOc1ccncc1NC(=O)c1c(N)nn2cc(CC#N)cnc12` [I-O-29, 2-amino-6-(cyanomethyl)-N-(4-(2-methoxyethoxy)pyridin-3-yl)pyrazolo[1,5-a]pyrimidine-3-carboxamide]: less than 10 nM.
For the compound `Nc1nn2cc(F)cnc2c1C(=O)Nc1cnccc1N1CCC2(CCNC2)CC1` [I-N-255, N-(4-(2,8-diazaspiro[4.5]decan-8-yl)pyridin-3-yl)-2-amino-6-fluoropyrazolo[1,5-a]pyrimidine-3-carboxamide], the Ki was 10 to 1000 nM.
